Values of other authors as cited in patent US20240180821A1, “ORALLY DISINTEGRATING FILM COMPOSITION OF KETOROLAC AND A METHOD OF PREPARATION THEREOF” (LN LABORATORIES PVT LTD, priority 2021, published 2024).

O=C(c1ccccc1)c1ccc2n1CCC2C(=O)O (racemic) [Ketorolac tromethamine, (±)-5-Benzoyl-2,3-dihydro-1H-pyrrolizine-1-carboxylic acid, compound with 2-amino-2-(hydroxymethyl)-1,3-propanediol]
pKa: 3.5
